According to patent publication US10021877B2, “Substituted 5-hydroxy-2,3-diphenylpentanonitrile derivatives, processes for their preparation and their use as herbicides and/or plant growth regulators” (BAYER CROPSCIENCE AKTIENGESELLSCHAFT, priority 2013, dated 2018):

System: PHBPU=Pharbitis purpurea
Experiment: Biological tests (herbicidal action) against PHBPU
Type: in vivo
Conditions: application rate 320 g/ha
Text: Seeds of monocotyledonous and dicotyledonous weed plants and crop plants were placed in wood-fibre pots in sandy loam and covered with soil. The compounds (I) according to the invention, formulated in the form of wettable powders (WP), were then applied as aqueous suspension or emulsion at a water application rate of 600 l/ha (converted) with the addition of 0.2% of wetting agent to the surface of the covering soil.
After the treatment, the pots were placed in a greenhouse and kept under good growth conditions for the test plants. After about 3 weeks, the effect was scored visually in comparison with untreated controls as percentages. For example, 100% activity=the plants have died, 50% herbicidal activity or damage=the plants have been reduced by 50% or the plant mass has been reduced by 50%, 0% activity=like control plants.
Seeds of monocotyledonous and dicotyledonous weeds and crop plants were placed in sandy loam in wood-fibre pots, covered with soil and cultivated in a greenhouse under good growth conditions. […]
What was determined was the respective herbicidal activity, in each case at the same point in time after application of the formulation in question. i.e. the damage to the respective harmful plant in %.

CC(=O)OCCC(c1cc(F)ccc1F)C(C#N)c1ccc(F)c(Br)c1 (mixture of isomers) [Ibb52]
herbicidal activity against PHBPU: 100%

N#C[C@@H](c1cccc(F)c1)[C@@H](CCO)c1ccc(Cl)cc1 [threo-1-Iba354]
herbicidal activity against PHBPU: 80%
